From patent US20250144067A1, “PERSONALIZED STARVATION THERAPY FOR CANCER” (Faeth Therapeutics, Inc., priority 2021, published 2025) come the findings set out here.

The subject of test [1] is NCI-H292 lung cancer cells. Put plainly: FDA drug screening, complete media vs cholesterol-free media without statin (TABLE 1). In kind it is cell-based, human.
The test system of test [2] is NCI-H292 lung cancer cells. Put plainly: FDA drug screening, complete media vs cholesterol-free media with simvastatin (TABLE 2). The class given is cell-based, human.
[3] abbreviates: Complete minus Cholesterol-free, >0 enhanced anti-cancer activity, about 0 neutral, <0 antagonist.
The mark [4] stands for this setting: NCI-H292 cells, cholesterol-free media without statin.
[5] abbreviates: NCI-H292 cells, drug in cholesterol-free media with simvastatin 0.04 μM.
Setting [6] is: NCI-H292 cells, drug in complete media.
Where [7] appears, read: complete media vs cholesterol-free media + simvastatin (0.04 μM), >0 enhanced anti-cancer activity, about 0 neutral, <0 antagonist.
The mark [8] stands for this setting: Complete minus Cholesterol-free, greater than 0 enhanced anti-cancer activity, about 0 neutral, below 0 antagonist.
Where [9] appears, read: NCI-H292 cells, FDA drug library screen, cholesterol-free media without statin.
Setting [10] is: NCI-H292 cells, FDA drug library screen, complete media.
[11] abbreviates: NCI-H292 cells, FDA drug library screen, cholesterol-free media with simvastatin 0.04 μM.
The mark [12] stands for this setting: complete media minus cholesterol-free media + simvastatin, >0 enhanced anti-cancer activity, about 0 neutral, <0 antagonist.
Where [13] appears, read: NCI-H292 cells, cholesterol-free media without statin, FDA drug library screen.
Setting [14] is: NCI-H292 cells, complete media, FDA drug library screen.
The mark [15] stands for this setting: NCI-H292 cells, cholesterol-free media with simvastatin 0.04 μM, FDA drug library screen (TABLE 2).
Where [16] appears, read: NCI-H292 cells, complete media, FDA drug library screen (TABLE 2).
Setting [17] is: complete media minus cholesterol-free media + simvastatin (0.04 μM), >0 enhanced anti-cancer activity, about 0 neutral, <0 antagonist.
[18] abbreviates: NCI-H292 cells, FDA library drug in cholesterol-free media with simvastatin 0.04 μM.
Setting [19] is: NCI-H292 cells, FDA library drug in complete media.
Where [20] appears, read: Complete minus Cholesterol-free, greater than 0 enhanced anti-cancer activity, about 0 neutral, below 0 antagonists.
Where [21] appears, read: NCI-H292 cells in cholesterol-free media without statin.
The mark [22] stands for this setting: NCI-H292 cells in complete media.
Setting [23] is: NCI-H292 cells, cholesterol-free media with simvastatin 0.04 μM, cell growth value in FDA drug screen.
[24] abbreviates: NCI-H292 cells, complete media, cell growth value in FDA drug screen.

Where a name gives a salt, the structure may show the parent alone. Read-outs that look alike come from different tables or passages of the source.

As for `NCCCC(N)(C(=O)O)C(F)F` (stereo not drawn) [Eflornithine (hydrochloride hydrate)], the results for the Difference in test [1] (setting [3]) and in test [2] (setting [7]) were −0.22 and −0.20, respectively. In addition, the Cholesterol-free in test [1] (setting [4]) is on record as 0.965. The Complete in test [1] (NCI-H292 cells, complete media) amounted to 0.7419. Also, the “Cholesterol-free media + simvastatin (0.04 μM)” value in test [2] (setting [5]) is 1.426. Besides, in test [2] (setting [6]), the “Complete Media” value came out at 1.224.

In the case of `CN(C)CCCN1c2ccccc2Sc2ccccc21` [Promazine (hydrochloride)], the Difference in test [1] (setting [8]) is −0.18; in test [2] (setting [12]), 0.14. In test [1] (setting [9]), this molecule came in with a Cholesterol-free of 1.243. In addition, the Complete in test [1] (setting [10]) stood at 1.064. Besides, in test [2] (setting [11]), the “Cholesterol-free media + simvastatin (0.04 μM)” value came out at 0.8407. For the same molecule, the “Complete Media” value in test [2] (setting [10]) worked out at 0.9785.

As for `Cc1cnc(C(=O)N[C@H]2CCCCC/C=C\[C@@H]3C[C@@]3(C(=O)NS(=O)(=O)C3CC3)NC(=O)[C@@H]3C[C@@H](Oc4nc5ccccc5c5ccccc45)CN3C2=O)cn1` [Paritaprevir], the Difference in test [1] (setting [3]) is recorded as −0.03; in test [2] (setting [17]), −0.05. In addition, the Cholesterol-free in test [1] (setting [13]) stood at 0.9471. Besides, the Complete in test [1] (setting [14]) amounted to 0.9198. In test [2] (setting [15]), the “Cholesterol-free media + simvastatin (0.04 μM)” value came to 1.147. In addition, in test [2] (setting [16]), the “Complete Media” value is 1.102.

Consider `CC[N+](CC)(CC)CCOc1cccc(OCC[N+](CC)(CC)CC)c1OCC[N+](CC)(CC)CC` [Gallamine Triethiodide], for which the Difference in test [1] (setting [3]) is −0.28; in test [2] (setting [7]), −0.35. Moreover, in test [1] (setting [4]), the Cholesterol-free worked out at 1.311. Also, the Complete in test [1] (NCI-H292 cells, complete media) is listed as 1.029. In addition, the “Cholesterol-free media + simvastatin (0.04 μM)” value in test [2] (setting [18]) was determined as 1.372. Further, the “Complete Media” value in test [2] (setting [19]) is listed as 1.027.

As to `COc1cc(Nc2ncc(F)c(Nc3ccc4c(n3)N(COP(=O)(O)O)C(=O)C(C)(C)O4)n2)cc(OC)c1OC` [Fostamatinib (disodium hexahydrate)], the Difference in test [1] (setting [3]) is 0.00; in test [2] (setting [7]), −0.10. This molecule registered a Cholesterol-free in test [1] (setting [13]) of 0.5454. Moreover, the Complete in test [1] (setting [14]) was determined as 0.5466. Also, the “Cholesterol-free media + simvastatin (0.04 μM)” value in test [2] (setting [11]) turned out to be 0.9752. Also, the “Complete Media” value in test [2] (setting [10]) came out at 0.8745.

In the case of `CCC(=O)OCC(=O)[C@@]1(OC(=O)CC)[C@@H](C)C[C@H]2[C@@H]3CCC4=CC(=O)C=C[C@]4(C)[C@@]3(Cl)[C@@H](O)C[C@@]21C` [Beclometasone dipropionate], the results for the Difference in test [1] (setting [8]) and in test [2] (setting [7]) were −0.19 and −0.28, respectively. The Cholesterol-free in test [1] (setting [9]) amounted to 1.005. Besides, in test [1] (setting [10]), the Complete amounted to 0.8203. Further, the “Cholesterol-free media + simvastatin (0.04 μM)” value in test [2] (setting [18]) came to 1.133. Also, in test [2] (setting [19]), the “Complete Media” value came out at 0.8544.

`C[C@H](Cc1cc2c(c(C(N)=O)c1)N(CCCO)CC2)NCCOc1ccccc1OCC(F)(F)F` [Silodosin] yielded a Cholesterol-free in test [1] (setting [4]) of 1.295. In test [1] (NCI-H292 cells, complete media), this molecule had a Complete of 0.8816. Besides, the Difference is reported as −0.41 in test [1] (complete vs cholesterol-free media, greater than 0 enhanced anti-cancer activity, about 0 neutral, below 0 antagonists) and −0.14 in test [2] (setting [7]). In addition, in test [2] (setting [11]), the “Cholesterol-free media + simvastatin (0.04 μM)” value worked out at 1.21. Besides, the “Complete Media” value in test [2] (setting [10]) was 1.074.

Take `Nc1c2ccccc2nc2ccccc12` [9-Aminoacridine]: the results for the Difference in test [1] (setting [3]) and in test [2] (setting [12]) were −0.03 and 0.20, respectively. The same molecule gave a Cholesterol-free in test [1] (setting [13]) of 0.5968. This molecule yielded a Complete in test [1] (setting [14]) of 0.5645. In addition, the “Cholesterol-free media + simvastatin (0.04 μM)” value in test [2] (setting [11]) amounted to 0.3257. In addition, in test [2] (setting [10]), the “Complete Media” value is on record as 0.5257.

For the molecule `CCOc1ccc(NC(C)=O)cc1` [Phenacetin], the Difference is on record as −0.09 in test [1] (setting [8]) and −0.08 in test [2] (setting [7]). In test [1] (setting [9]), this molecule registered a Cholesterol-free of 0.9552. The molecule also yielded a Complete in test [1] (setting [10]) of 0.8688. The “Cholesterol-free media + simvastatin (0.04 μM)” value in test [2] (setting [11]) is on record as 1.132. Also, the “Complete Media” value in test [2] (setting [10]) was 1.048.

As for `COC(=O)N[C@@H](C)CNc1nccc(-c2cn(C(C)C)nc2-c2cc(Cl)cc(NS(C)(=O)=O)c2F)n1` [Encorafenib], the Difference in test [1] (setting [3]) was −0.19; in test [2] (setting [17]), −0.06. For the same molecule, the Cholesterol-free in test [1] (setting [4]) amounted to 0.5021. For the same molecule, the Complete in test [1] (NCI-H292 cells, complete media) is given as 0.3116. For the same molecule, the “Cholesterol-free media + simvastatin (0.04 μM)” value in test [2] (setting [15]) is 0.6063. In test [2] (setting [16]), the “Complete Media” value was found to be 0.5501.

For `O=C(O)CCc1nc(-c2ccccc2)c(-c2ccccc2)o1` [Oxaprozin], the results for the Difference in test [1] (setting [8]) and in test [2] (setting [17]) were −0.11 and 0.01, respectively. The Cholesterol-free in test [1] (setting [9]) was found to be 1.125. Besides, in test [1] (setting [10]), the Complete was 1.011. For the same molecule, the “Cholesterol-free media + simvastatin (0.04 μM)” value in test [2] (setting [15]) worked out at 0.8941. Also, in test [2] (setting [16]), the “Complete Media” value was 0.904.

In the case of `C=C1[C@H](CO)[C@@H](O)C[C@@H]1n1cnc2c(=O)[nH]c(N)nc21` [Entecavir (monohydrate)], the Difference in test [1] (setting [20]) is given as −0.52; in test [2] (setting [7]), −0.20. The molecule also showed a Cholesterol-free in test [1] (setting [21]) of 1.519. This molecule came in with a Complete in test [1] (setting [22]) of 1. Moreover, the “Cholesterol-free media + simvastatin (0.04 μM)” value in test [2] (setting [5]) amounted to 1.17. In addition, the “Complete Media” value in test [2] (setting [6]) came out at 0.9716.

With `CC1(O)CCC(C(C)(C)O)CC1` (stereo not drawn) [Terpin (hydrate)], the Difference in test [1] (setting [3]) is listed as 0.06; in test [2] (setting [7]), −0.26. Further, the Cholesterol-free in test [1] (setting [13]) came to 0.8684. In test [1] (setting [14]), the Complete amounted to 0.9288. In addition, the “Cholesterol-free media + simvastatin (0.04 μM)” value in test [2] (setting [5]) stood at 1.474. The “Complete Media” value in test [2] (setting [6]) turned out to be 1.21.

In test [1], `CCCCCCCCCCCC[N+](C)(C)CCOc1ccccc1.[Br-]` [Domiphen (bromide)] came in with a Cholesterol-free of −0.0357, a Complete of 0.01628 and a Difference of 0.05. Besides, in test [2], the “Cholesterol-free media + simvastatin (0.04 μM)” value turned out to be 0.01614, the “Complete Media” value is reported as −0.0427 and the Difference was −0.06.

As to `COS(=O)(=O)[O-].C[N+]1(C)CCC(=C(c2ccccc2)c2ccccc2)CC1` [Diphenmanil (methylsulfate)], the Cholesterol-free in test [1] (setting [13]) was found to be 0.8176. The molecule further displayed a Complete in test [1] (setting [14]) of 0.9244. Also, the Difference in test [1] (complete vs cholesterol-free media, […]) is 0.11; in test [2] (complete media vs cholesterol-free media + simvastatin (0.04 μM), […]), −0.60. The “Cholesterol-free media + simvastatin (0.04 μM)” value in test [2] (setting [18]) was determined as 2.109. The “Complete Media” value in test [2] (setting [19]) was 1.508.

Take `C[N+](C)(C)CCO.[Cl-]` [Choline (chloride)]: the Cholesterol-free in test [1] (setting [13]) turned out to be 0.7223. The molecule also yielded a Complete in test [1] (setting [14]) of 1.217. Further, the Difference in test [1] (complete vs cholesterol-free media, >0 enhanced anti-cancer activity, about 0 neutral, <0 antagonist) is on record as 0.49; in test [2] (setting [12]), 0.06. Further, the “Cholesterol-free media + simvastatin (0.04 μM)” value in test [2] (setting [23]) worked out at 0.793. Further, the “Complete Media” value in test [2] (setting [24]) was 0.8494.

Turning to `CCCc1cc(=O)[nH]c(=S)[nH]1` [Propylthiouracil], the values for the Difference in test [1] (setting [3]) and in test [2] (setting [17]) were −0.23 and −0.01, respectively. For the same molecule, the Cholesterol-free in test [1] (setting [4]) is recorded as 1.082. The molecule also gave a Complete in test [1] (NCI-H292 cells, complete media) of 0.8473. Also, the “Cholesterol-free media + simvastatin (0.04 μM)” value in test [2] (setting [15]) amounted to 0.9529. Also, in test [2] (setting [16]), the “Complete Media” value was found to be 0.939.

Turning to `O=C(O)c1cc(=O)c2c(OCC(O)COc3cccc4oc(C(=O)O)cc(=O)c34)cccc2o1` [Cromolyn (sodium)], the Difference in test [1] (setting [20]) is reported as −0.63; in test [2] (setting [12]), 0.09. The Cholesterol-free in test [1] (setting [21]) came out at 1.66. In test [1] (setting [22]), this molecule returned a Complete of 1.032. Further, the “Cholesterol-free media + simvastatin (0.04 μM)” value in test [2] (setting [23]) is 0.821. In addition, the “Complete Media” value in test [2] (setting [24]) was determined as 0.9131.
